Patent US8071569B2, “Oxidized heparin fractions and their use in inhibiting angiogenesis” (priority 2002, dated 2011)

Experiments:
[1] = tested on: Human umbilical vein endothelial cells (HUVEC); experiment: Inhibition of FGF2-stimulated endothelial cell tube formation on Matrigel; assay type: cell-based; details: FGF2 alone 100 ng/ml, overnight
Experimental: Differentiation by endothelial cells was examined using a method developed by Grant et al. (Grant et al., In Vitro Cell Dev. Biol., 27A:327-336 (1991), which is hereby incorporated by reference in its entirety). Matrigel® matrix, phenol-red free (commercially available from Becton Dickinson, Bedford, Mass.) was thawed overnight at 4° C. Using cold pipette tips, 3.0 mg/well of Matrigel® matrix was placed in a cold twenty-four-multiwell plate (Falcon). Matrigel® matrix was allowed to polymerize during incubation at 37° C. for 30 minutes.
Human umbilical vein endothelial cells (HUVEC) were maintained at 37° C. with 5% CO2 and 95% humidity in endothelial cell growth medium with 2% fetal bovine serum (EGM). […]
Subsequently, the medium was aspirated and cells were fixed and stained using a modified HEMA-3 stain kit. Digital images of micro-titer well sections were collected using a DKC5000 3-CCD color video camera system (Toshiba America, New York, N.Y.) and analyzed using Image-Pro Plus software (Media Cybernetics, Silver Spring, Md.). The area and major axis length of stained cells having a tubular morphology was measured on the Matrigel® matrix surface (Becton Dickinson, Bedford, Pa.) counted from 5 images/well.

[2] = tested on: chick chorioallantoic membrane (CAM); experiment: FGF2-induced neovascularization on the chick chorioallantoic membrane (CAM); assay type: in vivo; details: FGF2 alone (filter disk, 1 μg/mL)
Experimental: In vivo neovascularization was examined by the method previously described by Auerbach et al. (Auerbach et al., J. Dev. Biol., 41:391-394 (1974), which is hereby incorporated by reference in its entirety). Ten-day old embryos were purchased from Spafas, Inc. (Preston, Conn.) and were incubated at 37° C. with 55% relative humidity. In the dark with the help of a candling lamp, a small hole was punctured in the shell concealing the air sac with a hypodermic needle. A second hole was punctured in the shell on the broadside of the egg directly over an avascular portion of the embryonic membrane, as observed during candling. A false air sac was created beneath the second hole by the application of negative pressure to the first hole, which caused the chorioallantoic membrane (CAM) to separate from the shell. […]
CAM tissue directly beneath FGF2-saturated filter disk was resected from embryos treated 48 hours prior with test compound or control. […] Digital images of CAM sections adjacent to filters were collected using a 3-CCD color video camera system (Toshiba America, New York, N.Y.) and analyzed using Image-Pro Plus software (Media Cybernetics, Silver Spring, Md.). Table 4 contains the number of vessel branch points contained in a circular region equal to the area of a filter disk counted for each section.

Colon tumor = experiment: CAM tumor implant model, colon tumor; assay type: in vivo, chick; details: 0.01 mg single dose over 7 days, initial implant 45 ± 5 mg, n = 8
Experimental: Ten million tumor cells were placed on the surface of each CAM and were cultured for one week. The resulting tumors were excised and cut into 50 mg fragments. These fragments were placed on additional CAMs and treated topically or systemically by intravenous injection the following day with the test agents. […] Each treatment group incorporated at least ten tumors per experiment. Tumors were then excised from the egg and tumor weights were determined for each tumor.

Row | Substance | Cell Tube Formation (area, mm^2) [1] [mm^2] | Cell Tube Formation (length, mm) [1] [mm] | Average # of Branch Points [2] | Mean tumor weight (mg) ± SEM (Colon tumor) [mg]
1 | FGF2: recombinant human fibroblast growth factor basic, angiogenic stimulus | 2.50 ± 0.28 | 79.83 ± 8.66 | 264 + 18 | –
2 | r-TFPI: r-tissue factor pathway inhibitor | – | – | – | 38 ± 8
